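Where inhibition never reached the appropriate level, the endpoint shown equals the highest concentration tested. Otherwise, values were interpolated linearly from a five-concentration, 48-hour dose response in 96-well plates. TGI: concentration producing complete growth inhibition.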

This passage reports TGI results from PubChem BioAssay (NCI).

Test systems include BT-549 breast; IGROV1 ovarian; NCI-H522 lung; HT29 colon; EKVX NSCLC; PC-3 prostate; HOP-62 NSCLC; RXF 393 renal; CCRF-CEM leukemia; HOP-92 NSCLC; TK-10 renal; SNB-75 CNS; OVCAR-3 ovarian; MDA-MB-435; MOLT-4 leukemia; NCI-H226 lung; NCI-H23 lung; MALME-3M melanoma; SK-MEL-2 melanoma; CAKI-1 renal.
Common to all, as to experiment: NCI-60 cell line screen, 48 h

As to `O=C(Nn1c(-c2ccccc2)nc2ccccc2c1=O)c1cccc([N+](=O)[O-])c1`, the TGI in the test with BT-549 breast, in the test on IGROV1 ovarian, in the test with NCI-H522 lung, with HT29 colon, with EKVX NSCLC and in the test on PC-3 prostate was more than 100 µM each time. Further, the TGI in the test with HOP-62 NSCLC, in the test on RXF 393 renal, in the test with CCRF-CEM leukemia, in the test on HOP-92 NSCLC, in the test with TK-10 renal and in the test with SNB-75 CNS was more than 100 µM each time. The TGI in the test with OVCAR-3 ovarian, in the test with MDA-MB-435, in the test on MOLT-4 leukemia, in the test with NCI-H226 lung and in the test on NCI-H23 lung was more than 100 µM throughout.
Consider `Cc1nc(C)c(N2CCN(Cc3ccccc3)CC2)c(=O)[nH]1`, for which the TGI with BT-549 breast, in the test on IGROV1 ovarian, with NCI-H522 lung, with HT29 colon, with EKVX NSCLC and with PC-3 prostate was more than 100 µM throughout. The TGI in the test on HOP-62 NSCLC, with RXF 393 renal, in the test with CCRF-CEM leukemia, with MALME-3M melanoma, in the test with HOP-92 NSCLC and in the test with TK-10 renal was more than 100 µM throughout. For the same compound, the TGI in the test on OVCAR-3 ovarian, in the test with MDA-MB-435, in the test on MOLT-4 leukemia, in the test with NCI-H226 lung and with NCI-H23 lung was more than 100 µM in each case.
For the compound `c1ccc2c(c1)CCN1CCc3ccccc3C1C2` (stereo not drawn), the TGI with SK-MEL-2 melanoma, in the test on BT-549 breast, in the test with IGROV1 ovarian, in the test on NCI-H522 lung, with HT29 colon and in the test on EKVX NSCLC was more than 100 µM each time. The TGI in the test on PC-3 prostate, in the test on HOP-62 NSCLC, in the test on CCRF-CEM leukemia, in the test on MALME-3M melanoma, in the test on HOP-92 NSCLC and in the test on TK-10 renal was more than 100 µM in each case. For the same compound, the TGI was more than 100 µM in the test with SNB-75 CNS; more than 100 µM in the test on CAKI-1 renal; more than 100 µM in the test with OVCAR-3 ovarian; more than 100 µM in the test on MDA-MB-435; more than 100 µM in the test with MOLT-4 leukemia; 93.1 µM in the test with NCI-H226 lung. Moreover, in the test with NCI-H23 lung, the TGI is more than 100 µM.
With `N#Cc1c(C#N)c(SSc2c(C#N)c(C#N)c(N)n2-c2cccc3ccccc23)n(-c2cccc3ccccc23)c1N`, the TGI was 34.8 µM with SK-MEL-2 melanoma; 12.6 µM with BT-549 breast; more than 100 µM with IGROV1 ovarian; 3.15 µM with NCI-H522 lung; 39.2 µM in the test on HT29 colon; 10.1 µM with EKVX NSCLC. Further, the TGI in the test on PC-3 prostate amounted to 35.5 µM; in the test with HOP-62 NSCLC, 49.9 µM; with RXF 393 renal it was 17.4 µM; in the test with MALME-3M melanoma it was 3.4 µM; with HOP-92 NSCLC, 13.6 µM; in the test on TK-10 renal, 40.9 µM. Moreover, the TGI in the test with SNB-75 CNS is 38.7 µM; with CAKI-1 renal it was 29.5 µM; in the test on MDA-MB-435, 36.5 µM; in the test on MOLT-4 leukemia, more than 100 µM; with NCI-H226 lung, 56.3 µM; in the test on NCI-H23 lung it was more than 63.2 µM.
In the case of `COC(C)=NCCC1=CCCCC1`, the TGI in the test with SK-MEL-2 melanoma, with BT-549 breast, in the test with IGROV1 ovarian, with NCI-H522 lung, in the test with HT29 colon and in the test with EKVX NSCLC was more than 100 µM throughout. Besides, the TGI in the test with PC-3 prostate, with HOP-62 NSCLC, in the test with RXF 393 renal, in the test with MALME-3M melanoma, in the test on HOP-92 NSCLC and with TK-10 renal was more than 100 µM each time. Also, the TGI with SNB-75 CNS, in the test with CAKI-1 renal, with OVCAR-3 ovarian, in the test on MDA-MB-435, in the test with MOLT-4 leukemia and in the test with NCI-H23 lung was more than 100 µM in each case.
On to `O=C1CSC(c2ccccc2)N1c1ccc(-c2ccc(-n3c(-c4ccccc4)nc4ccccc4c3=O)cc2)cc1` (stereo not drawn), for which the TGI in the test on SK-MEL-2 melanoma, with BT-549 breast, in the test on IGROV1 ovarian, with NCI-H522 lung, with HT29 colon and in the test on EKVX NSCLC was more than 100 µM in each case. Moreover, the TGI with PC-3 prostate, in the test on HOP-62 NSCLC, with CCRF-CEM leukemia, in the test with MALME-3M melanoma, with HOP-92 NSCLC and in the test with TK-10 renal was more than 100 µM in each case. Also, the TGI in the test with CAKI-1 renal, with OVCAR-3 ovarian, with MDA-MB-435, in the test on MOLT-4 leukemia and with NCI-H23 lung was more than 100 µM in each case.
`C1CSCCSCCSCCSCCS1`: the TGI in the test on SK-MEL-2 melanoma, with BT-549 breast, in the test with IGROV1 ovarian, in the test with NCI-H522 lung, in the test with HT29 colon and in the test on EKVX NSCLC was more than 100 µM throughout. The TGI in the test with PC-3 prostate, in the test on HOP-62 NSCLC, with RXF 393 renal, in the test with HOP-92 NSCLC, in the test on TK-10 renal and in the test with SNB-75 CNS was more than 100 µM each time. Also, the TGI in the test on CAKI-1 renal, with OVCAR-3 ovarian, in the test on MDA-MB-435, in the test on MOLT-4 leukemia, in the test with NCI-H226 lung and with NCI-H23 lung was more than 100 µM in each case.
Turning to `COC(=O)[C@]12CC[C@H]3CN(S(=O)(=O)c4ccc(C)cc4)[C@H]([C@H]31)[C@H](c1ccco1)N2S(=O)(=O)c1ccc(C)cc1`, the TGI was more than 100 µM in the test on SK-MEL-2 melanoma; 91.6 µM with BT-549 breast; more than 100 µM with IGROV1 ovarian; more than 100 µM in the test with NCI-H522 lung; more than 100 µM in the test with HT29 colon; more than 100 µM in the test on EKVX NSCLC. For the same compound, the TGI in the test with PC-3 prostate is more than 100 µM; in the test with HOP-62 NSCLC, more than 100 µM; in the test with RXF 393 renal, 71.5 µM; in the test with CCRF-CEM leukemia, more than 100 µM; in the test on MALME-3M melanoma it was 58.3 µM; in the test with HOP-92 NSCLC it was 62.8 µM. For the same compound, the TGI in the test with TK-10 renal was more than 100 µM; in the test on CAKI-1 renal, more than 100 µM; with OVCAR-3 ovarian it was more than 100 µM; in the test on MDA-MB-435 it was 55.8 µM; in the test on MOLT-4 leukemia, more than 100 µM; in the test with NCI-H226 lung, more than 100 µM. This compound displayed a TGI in the test on NCI-H23 lung of more than 100 µM.
